Reference: patent publication US20180044418A1, “COMBINATION OF A PD-1 ANTAGONIST AND VORINOSTAT FOR TREATING CANCER” (Merck Sharp & Dohme Corp., priority 2016, published 2018)

Experiments:
[1] = test system: CT-26 cells; experiment: Anti-tumor response in CT-26 tumor-bearing mice; format: in vivo, BALB/cAnN mice
Source text: (§1) This experiment compared the anti-tumor response of tumor-bearing mice to treatment with one of three regimens: monotherapy with a murine anti-mouse PD-1 monoclonal antibody (anti-PD-1), monotherapy with Vorinostat and combination therapy with these two agents administered concurrently.
Tumor-bearing mice for this study were initiated by implanting 3×10^5 log-phase and sub-confluent CT-26 cells on the right lower dorsal flank of 7-8 week old female BALB/cAnN mice with an average body weight of 18 grams. When the mean tumor volume in these mice reached ˜100 cubic mm (60mm^3-150 mm^3) (FIG. 1(A)), the tumor-bearing mice were randomized to 4 treatment groups of 12 mice per group: (1) Isotype control+Vehicle control group;(2) anti-PD-1 +Vehicle control; (3) Vorinostat +Isotype control and; (4) anti-PD-1+Vorinostat. A monoclonal antibody of murine isotype IgG1 against murine PD-1 and isotype control were obtained from internal sources. The isotype control was a mouse monoclonal antibody specific for adenoviral hexon 25 and was of the isotype IgG1. […] Anti-PD-1 was administered to treatment groups 2 and 4 at 10 mg/kg i.p. every 5 days for each of 5 cycles. Vorinostat was administered to treatment groups 3 and 4 at 150 mg/kg every day for 27 days.

[2] = test system: RENCA cells; experiment: Anti-tumor response in RENCA tumor-bearing mice
Source text: as §1
Tumor-bearing mice for this study were initiated by implanting 1×10^6 log-phase and sub-confluent RENCA cells on the right lower dorsal flank of 7-8 week old female BALB/cmice with an average body weight of 19 grams. When the mean tumor volume in these mice reached ˜100 cubic mm (65mm^3-140 mm^3) (FIG. 9(A)), the tumor-bearing mice were randomized to 4 treatment groups of 12 mice per group: (1) Isotype control +Vehicle control group;(2) Anti-PD-1 +Vehicle control; (3) Vorinostat+Isotype control and; (4) Anti-PD-1 +Vorinostat. A monoclonal antibody of murine isotype IgG1 against murine PD-1 and isotype control were obtained from internal sources. The isotype control was a mouse monoclonal antibody specific for adenoviral hexon 25 and was of the isotype IgG1. The formulations for each reagent was as follows: Isotype contro1:75 mM NaCl, 10 mM sodium phosphate, 3% sucrose, pH7.3; anti-PD-1: 20 mM sodium acetate, 7% sucrose, pH5.5; and Vorinostat vehicle: 0.5% HPC (hydroxypropylcellulose) with 0.002% SDS (sodium dodecyl sulfate) in sterile water. Anti-PD-1 was administered to treatment groups 2 and 4 at 5 mg/kg i.p. every 5 days for each of 5 cycles. Vorinostat was administered to treatment groups 3 and 4 at 150 mg/kg every day for 29 days.

O=C(CCCCCCC(=O)Nc1ccccc1)NO [Vorinostat, suberoylanilide hydroxamic acid]
effect of Vorinostat on anti-PD-1 anti-tumor activity in the combination treatment arm [1]: did not demonstrate antagonistic effects
complete regressions (CR) ([1]; 12 per group, measured through Day 29, anti-PD-1 10 mg/kg i.p. every 5 days x5, Vorinostat 150 mg/kg every day for 27 days): No CRs
survival ([1]; at Day 30, FIG. 8(B)): 10%
effect of Vorinostat on anti-PD-1 anti-tumor activity in the combination treatment arm [2]: did not demonstrate antagonistic effects
survival ([2]; at Day 30, FIG. 9(B)): 23%
complete regressions (CRs) ([2]; monotherapy arms, measured through Day 29): No CRs
